In general, IC50 refers to the concentration that inhibits the measured activity by half.

The structures appear in SMILES notation. Where two headings read alike, the source gives them in different places.

The values below come from US20130245064A1, “NOVEL NEUROTRYPSIN INHIBITORS” (priority 2010, published 2013).

The target of one test is T1, human neurotrypsin (Homo sapiens, UniProt P56730).
T1 sequence (P56730 21-875): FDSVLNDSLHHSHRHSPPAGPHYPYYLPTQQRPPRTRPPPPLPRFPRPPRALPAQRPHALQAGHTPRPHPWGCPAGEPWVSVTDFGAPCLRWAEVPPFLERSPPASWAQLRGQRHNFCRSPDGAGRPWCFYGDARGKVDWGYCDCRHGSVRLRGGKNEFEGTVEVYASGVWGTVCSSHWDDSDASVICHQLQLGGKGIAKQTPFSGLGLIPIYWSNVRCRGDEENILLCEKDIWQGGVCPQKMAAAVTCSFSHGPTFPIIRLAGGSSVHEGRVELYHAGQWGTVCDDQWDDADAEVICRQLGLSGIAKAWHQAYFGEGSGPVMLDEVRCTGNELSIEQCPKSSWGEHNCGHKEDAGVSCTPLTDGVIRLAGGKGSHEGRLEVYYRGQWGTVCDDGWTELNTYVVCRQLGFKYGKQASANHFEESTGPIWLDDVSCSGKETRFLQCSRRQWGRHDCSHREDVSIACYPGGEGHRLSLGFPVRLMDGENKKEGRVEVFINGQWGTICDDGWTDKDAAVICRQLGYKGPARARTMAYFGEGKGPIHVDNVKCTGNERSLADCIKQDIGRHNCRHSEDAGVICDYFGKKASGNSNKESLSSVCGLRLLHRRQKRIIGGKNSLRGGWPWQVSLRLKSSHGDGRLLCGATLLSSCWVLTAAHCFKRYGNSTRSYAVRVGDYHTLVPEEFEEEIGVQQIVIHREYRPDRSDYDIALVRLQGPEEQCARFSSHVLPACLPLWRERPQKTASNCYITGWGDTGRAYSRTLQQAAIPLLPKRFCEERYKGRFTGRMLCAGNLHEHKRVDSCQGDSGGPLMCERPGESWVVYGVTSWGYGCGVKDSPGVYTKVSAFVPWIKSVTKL
The experiment in a line: Determination of IC50 for human neurotrypsin. Format: biochemical. The protocol:
Determination of IC50 for Human Neurotrypsin
Assessment of the potency of compounds of examples 1-14 in inhibiting the enzymatic activity of human neurotrypsin was performed according to the method described in patent application […]

Another test concerns the target T2, Trypsin (Sus scrofa, UniProt P00761).
T2 construct: purchased Sigma Aldrich
The experiment in a line: Determination of IC50 for various proteases (chromogenic substrate, pNA release at 405 nm): trypsin. Format: biochemical. As to conditions: hog trypsin 2 nM, substrate S-2222 0.5 mM; Mean ± SD. The protocol: A 6 mM solution of the test compound in DMSO was prepared. In a V-bottom micro plate the 6 mM compound solution was diluted 6 times in DMSO to obtain a concentration row with the following concentrations: 6 mM, 1.8 mM, 540 μM, 162 μM, 48.8 μM, 14.4 μM, and 4 μM. From this DMSO master plate 1:20 dilutions in 10 mM MOPS pH 8.3 were prepared to obtain solutions of 300, 90, 27, 8.1, 2.44, 0.72 and 0.22 μM in MOPS buffer and 5% DMSO.
100 μl of this solution were pipetted into a flat bottom 96 well microplate and placed into a Tecan infinite 200 plate reader. Before measurement, 50 μl of protease solution and, subsequently 50 μl substrate solution were added by the machine. The liberation of free para nitroanilide was detected at 405 nm. The protease solution was freshly prepared by diluting to the desired concentration from a stock solution in 60 mM MOPS; 600 mM NaCl; 20 mM CaCl2; 10% DMSO; 0.4% PEG 6000 pH 8.3. The substrate solution was prepared by dissolving the solid substrate in an adequate amount of water to get the desired concentrations. The used protease and substrate solutions are given below:
All enzymes except trypsin were from human origin (American diagnostic). Trypsin was hog trypsin (Sigma Aldrich). Substrates were purchased from Chromogenix. […]

T2 sequence (P00761 9-231): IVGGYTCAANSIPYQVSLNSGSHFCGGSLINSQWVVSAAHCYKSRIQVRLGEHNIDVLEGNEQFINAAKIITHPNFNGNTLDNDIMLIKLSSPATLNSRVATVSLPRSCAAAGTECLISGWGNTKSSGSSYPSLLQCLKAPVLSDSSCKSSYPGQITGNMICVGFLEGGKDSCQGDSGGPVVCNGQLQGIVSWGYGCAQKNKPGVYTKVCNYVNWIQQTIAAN

Take `O=C(Nc1ccc(C(=O)Nc2ccc(Cl)cc2)c(O)c1)c1ccc(-c2nc3cc(Cl)c(Cl)cc3[nH]2)cc1` [Example 1, N-(4-Chlorophenyl)-4-(4-(5,6-dichloro-1H-benzo[d]imidazol-2-yl)benzamido)-2-hydroxybenzamide]: the IC50 at human neurotrypsin (Mean ± SD, read-out: IC50 Neurotrypsin) is 470 ± 150 nM; on human neurotrypsin (table of all 14 examples, read-out: Neurotrypsin IC50), 400 nM; at Trypsin, more than 150000 nM.
